Source: patent publication US20240391862A1, “(1,4,5-TRISUBSTITUTED-1H-PYRAZOL-3-YL)OXY-2-ALKOXY ALKYL ACIDS AND THEIR DERIVATIVES, THEIR SALTS AND THEIR USE AS HERBICIDAL AGENTS” (Bayer AKtiengesellschaft, priority 2021, published 2024)

Columns and labels:
Experiment in all cases: Post-emergence herbicidal effect, greenhouse pot test
MATIN = assay type: in vivo, Tripleurospermum inodorum; conditions: Tripleurospermum inodorum, 504 h, read-out: Post-emergence effect against MATIN in %
How it was run: (§1)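 Weeds sown in sandy loam, greenhouse-grown 2–3 weeks, then sprayed at one-leaf stage with WP or EC formulations in water plus 0.5% additive at 600 l/ha. Rates 20 to 320 g/ha. Visual rating after about 3 weeks versus untreated controls (100% = plants dead, 0% = like control).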

PHBPU = assay type: in vivo, Ipomoea purpurea; conditions: Ipomoea purpurea, 504 h, read-out: Post-emergence effect against PHBPU in %
How it was run: as §1

SETVI = assay type: in vivo, Setaria viridis; conditions: Setaria viridis, 504 h, read-out: Post-emergence effect against SETVI in %
How it was run: as §1

AMARE = assay type: in vivo, Amaranthus retroflexus; conditions: Amaranthus retroflexus, 504 h, visual rating about 3 weeks after treatment, read-out: Post-emergence effect against AMARE
How it was run: as §1

LOLRI = assay type: in vivo, Lolium rigidum; conditions: Lolium rigidum, 504 h, 320 g/ha, read-out: Post-emergence effect against LOLRI in %
How it was run: as §1

ABUTH = assay type: in vivo, Abutilon theophrasti; conditions: Abutilon theophrasti, 504 h, visual rating about 3 weeks after treatment, read-out: Post-emergence effect against ABUTH
How it was run: as §1

AVEFA = assay type: in vivo, Avena fatua; conditions: Avena fatua, 504 h, visual rating about 3 weeks after treatment, read-out: Post-emergence effect against AVEFA
How it was run: as §1

POLCO = assay type: in vivo, Fallopia convolvulus; conditions: Fallopia convolvulus, 504 h, read-out: Post-emergence effect against POLCO in %
How it was run: as §1

KCHSC = assay type: in vivo; conditions: 504 h, read-out: Post-emergence effect against KCHSC in %
How it was run: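 Visual rating of activity against untreated plants (100% = plants died, 0% = no effect), done about 3 weeks after treatment. Compounds applied at 20–320 g/ha as aqueous spray (600 l/ha, 0.5% additive) from WP or EC formulations onto one-leaf-stage plants grown in sandy loam under greenhouse conditions.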

ALOMY = assay type: in vivo, Alopecurus myosuroides; conditions: Alopecurus myosuroides, 504 h, visual rating about 3 weeks after treatment, read-out: Post-emergence effect against ALOMY
How it was run: as §1

DIGSA = assay type: in vivo, Digitaria sanguinalis; conditions: Digitaria sanguinalis, 504 h, visual rating about 3 weeks after treatment, read-out: Post-emergence effect against DIGSA
How it was run: as §1

VIOTR = assay type: in vivo, Viola tricolor; conditions: Viola tricolor, 504 h, read-out: Post-emergence effect against VIOTR in %
How it was run: as §1

ECHCG = assay type: in vivo, Echinochloa crus-galli; conditions: Echinochloa crus-galli, 504 h; for pest or weed control at 80 g/ha / pest or weed control at 320 g/ha: read-out: Post-emergence effect against ECHCG in %
How it was run: as §1

VERPE = assay type: in vivo, Veronica persica; conditions: Veronica persica, 504 h, read-out: Post-emergence effect against VERPE in %
How it was run: as §1

## CCOC(=O)C(OCC)Oc1nn(-c2ccccc2F)c(-c2ccc(F)nc2)c1Cl (centres unmarked) [Example I-50]
MATIN
  pest or weed control at 320 g/ha: 80%
PHBPU
  pest or weed control at 80 g/ha: 90%
  pest or weed control at 320 g/ha: 90%
SETVI
  pest or weed control at 80 g/ha: 90%
  pest or weed control at 320 g/ha: 90%
AMARE
  pest or weed control at 320 g/ha: 80%
LOLRI
  pest or weed control at 320 g/ha: 90%
ABUTH
  pest or weed control at 80 g/ha: 80%
  pest or weed control at 320 g/ha: 90%
AVEFA
  pest or weed control at 320 g/ha: 90%
POLCO
  pest or weed control at 320 g/ha: 80%
KCHSC
  pest or weed control at 320 g/ha: 80%
ALOMY
  pest or weed control at 320 g/ha: 80%
DIGSA
  pest or weed control at 320 g/ha: 90%
VIOTR
  pest or weed control at 80 g/ha: 80%
  pest or weed control at 320 g/ha: 90%
ECHCG; 20 g/ha, visual rating about 3 weeks after treatment, read-out: Post-emergence effect against ECHCG
  pest or weed control at 20 g/ha: 90%
ECHCG
  pest or weed control at 80 g/ha: 90%
  pest or weed control at 320 g/ha: 90%
VERPE
  pest or weed control at 80 g/ha: 90%
  pest or weed control at 320 g/ha: 90%

## COC(=O)C(OC)Oc1nn(-c2ccccc2F)c(-c2ccc(F)nc2)c1C(F)(F)F (centres unmarked) [Example I-70]
MATIN; 80 g/ha
  pest or weed control at 80 g/ha: 80%
MATIN
  pest or weed control at 320 g/ha: 80%
PHBPU
  pest or weed control at 80 g/ha: 90%
  pest or weed control at 320 g/ha: 90%
SETVI
  pest or weed control at 80 g/ha: 80%
  pest or weed control at 320 g/ha: 80%
AMARE; 80 g/ha
  pest or weed control at 80 g/ha: 80%
AMARE
  pest or weed control at 320 g/ha: 80%
LOLRI
  pest or weed control at 320 g/ha: 90%
ABUTH
  pest or weed control at 80 g/ha: 80%
  pest or weed control at 320 g/ha: 90%
AVEFA; 80 g/ha
  pest or weed control at 80 g/ha: 90%
AVEFA
  pest or weed control at 320 g/ha: 90%
POLCO; 20 g/ha
  pest or weed control at 20 g/ha: 80%
POLCO; 80 g/ha
  pest or weed control at 80 g/ha: 80%
POLCO
  pest or weed control at 320 g/ha: 80%
KCHSC; 20 g/ha
  pest or weed control at 20 g/ha: 80%
KCHSC; 80 g/ha
  pest or weed control at 80 g/ha: 90%
KCHSC
  pest or weed control at 320 g/ha: 90%
ALOMY; 80 g/ha
  pest or weed control at 80 g/ha: 80%
ALOMY
  pest or weed control at 320 g/ha: 90%
DIGSA; 80 g/ha
  pest or weed control at 80 g/ha: 80%
DIGSA
  pest or weed control at 320 g/ha: 90%
VIOTR
  pest or weed control at 80 g/ha: 90%
  pest or weed control at 320 g/ha: 90%
ECHCG
  pest or weed control at 80 g/ha: 90%
  pest or weed control at 320 g/ha: 90%
VERPE
  pest or weed control at 80 g/ha: 90%
  pest or weed control at 320 g/ha: 90%
